Measurements as given in ChEMBL document CHEMBL1201862, “PubChem BioAssay data set” (2004).
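48-hour exposure; five concentrations; linearly interpolated endpoints. GI50 marks 50% less growth.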 Activity calls are given as the source filed them. Rule as the data show it: active = GI50 up to about 1.1 µM and inactive = higher.

Columns and labels:
Assay in all cases: NCI tumour cell line growth inhibition, 48 h
[1] = tested on: A549
[2] = tested on: COLO 205
[3] = tested on: HCT-116
[4] = tested on: IGROV-1
[5] = tested on: KM12
[6] = tested on: M14
[7] = tested on: MCF7
[8] = tested on: Malme-3M
[9] = tested on: OVCAR-3
[10] = tested on: OVCAR-4
[11] = tested on: RPMI-8226
[12] = tested on: SF-295
[13] = tested on: SF-539
[14] = tested on: SK-MEL-28
[15] = tested on: SN12C
[16] = tested on: SNB-75
[17] = tested on: U-251
[18] = tested on: UACC-62
[19] = tested on: UO-31
[20] = tested on: NCI-H226

Measured: GI50

CCOC(=O)C1C(c2ccc(O)c(OC)c2)c2c(n[nH]c2O)CC1(C)O (stereo not drawn)
inactive: [1] > 100 µM | [2] > 100 µM | [3] > 100 µM | [4] > 100 µM | [5] > 100 µM | [6] > 100 µM | [7] > 100 µM | [8] > 100 µM | [9] > 100 µM | [10] > 100 µM | [11] > 100 µM | [12] > 100 µM | [13] > 100 µM | [14] > 100 µM | [15] > 100 µM | [16] > 100 µM | [17] > 100 µM | [18] > 100 µM | [19] > 100 µM

COc1ccc(C[N+]23C(CC[C@H]2c2ccccc2)CC[C@H]3c2ccccc2)cc1 (stereo partly drawn)
inactive: [1] 31.3 µM | [2] 5.26 µM | [3] 24.5 µM | [4] 10.9 µM | [5] 10.4 µM | [6] 12.9 µM | [7] 14.7 µM | [8] 11.4 µM | [20] 14.1 µM | [9] 6.04 µM | [10] 13.1 µM | [11] 2.8 µM | [12] 26.1 µM | [14] 20.3 µM | [15] 36.9 µM | [16] 18.3 µM | [17] 18.6 µM | [19] 31.9 µM

CC(=O)Nc1ccc(C(=O)N[C@@H]2C(=O)N3[C@@H]2SC(C)(C)[C@@H]3C(=O)O)cn1
inactive: [1] > 100 µM | [2] > 100 µM | [3] > 100 µM | [4] > 100 µM | [5] > 100 µM | [6] > 100 µM | [7] > 100 µM | [8] > 100 µM | [20] > 100 µM | [9] > 100 µM | [10] > 100 µM | [11] > 100 µM | [12] > 100 µM | [14] > 100 µM | [15] > 100 µM | [16] > 100 µM | [17] > 100 µM | [18] > 100 µM | [19] > 100 µM

CCN1CCN(c2nc3ccccc3nc2C(=O)c2ccc(OC)cc2)CC1
inactive: [1] 23.8 µM | [2] > 100 µM | [3] 6.07 µM | [4] 75.9 µM | [5] 24.8 µM | [6] 15 µM | [7] 7.1 µM | [8] 16.5 µM | [9] 69.7 µM | [10] 57.5 µM | [11] 7.19 µM | [12] 32.7 µM | [13] 26.4 µM | [14] 36 µM | [16] 37.2 µM | [17] 39.4 µM | [18] 20.6 µM | [19] 19.7 µM

CCOC(=O)N1CCC2(CC1)C[C@](Sc1ccccc1)(C(C)=O)[C@H](C)O2
inactive: [1] > 100 µM | [2] > 100 µM | [4] > 100 µM | [5] > 100 µM | [6] > 100 µM | [7] > 100 µM | [8] > 100 µM | [20] > 100 µM | [9] > 100 µM | [10] > 100 µM | [11] > 100 µM | [12] > 100 µM | [13] > 100 µM | [14] > 100 µM | [16] > 100 µM | [17] > 100 µM | [18] > 100 µM | [19] > 100 µM

CC1(C)C(CC(=O)O)CCCC1CC(=O)O (stereo not drawn)
inactive: [1] > 100 µM | [2] > 100 µM | [3] > 100 µM | [4] > 100 µM | [5] > 100 µM | [6] > 100 µM | [7] > 100 µM | [20] 55.5 µM | [9] > 100 µM | [10] > 100 µM | [11] > 100 µM | [12] > 100 µM | [14] > 100 µM | [15] > 100 µM | [17] > 100 µM | [18] > 100 µM | [19] > 100 µM

Nc1ccc(CCN2CCN(CCCc3ccccc3)CC2)cc1
inactive: [1] > 100 µM | [2] 27.7 µM | [3] 31.9 µM | [4] 98.6 µM | [5] 82.8 µM | [6] 39.4 µM | [7] 28.6 µM | [8] 38.5 µM | [20] > 100 µM | [9] 48.1 µM | [10] 53.1 µM | [11] 46.7 µM | [12] > 100 µM | [13] 80.5 µM | [14] > 100 µM | [15] > 100 µM | [17] > 100 µM | [18] > 100 µM | [19] 56.9 µM

OCC(O)CNc1ncnc2ccccc12 (stereo not drawn)
inactive: [1] > 100 µM | [2] > 100 µM | [3] > 100 µM | [4] > 100 µM | [5] > 100 µM | [6] > 100 µM | [7] > 100 µM | [8] > 100 µM | [20] > 100 µM | [9] > 100 µM | [10] > 100 µM | [11] > 100 µM | [12] > 100 µM | [14] > 100 µM | [15] > 100 µM | [16] > 100 µM | [17] > 100 µM | [18] > 100 µM | [19] > 100 µM

COc1ccc(/C=C2\OC(=O)C(Cl)=C2c2ccc(OC)c(Cl)c2)cc1
inactive: [1] 24.4 µM | [2] 40.4 µM | [3] 39.1 µM | [4] 32 µM | [5] 28.7 µM | [6] 25.4 µM | [7] 19.9 µM | [8] 25.3 µM | [9] 20 µM | [10] 20.3 µM | [11] 24.9 µM | [12] 25.5 µM | [13] 15.2 µM | [14] 35.7 µM | [16] 19.7 µM | [17] 29.4 µM | [18] 26.5 µM | [19] 22 µM

Nc1nc(N)c2cc(-c3ccccc3)cnc2n1
inactive: [1] 9.44 µM | [2] 14.3 µM | [3] 4.66 µM | [4] 12.9 µM | [5] 16.5 µM | [6] 12.9 µM | [7] 16.3 µM | [8] 8.99 µM | [20] 16.5 µM | [9] 18.2 µM | [10] 13.9 µM | [11] 16.6 µM | [12] 17 µM | [13] 14.7 µM | [14] 17.7 µM | [15] 12.2 µM | [16] 3.61 µM | [17] 15.1 µM | [19] 13 µM

COC(=O)CC[N+]1([O-])CC1
inactive: [1] > 100 µM | [2] > 100 µM | [3] > 100 µM | [4] > 100 µM | [5] > 100 µM | [6] > 100 µM | [7] > 100 µM | [8] > 100 µM | [20] > 100 µM | [10] > 100 µM | [11] > 100 µM | [12] > 100 µM | [13] > 100 µM | [14] > 100 µM | [15] > 100 µM | [16] > 100 µM | [17] > 100 µM | [18] > 100 µM | [19] > 100 µM

COC(=O)c1cc2ccc(N)nc2[nH]c1=O
inactive: [1] > 100 µM | [2] > 100 µM | [3] > 100 µM | [4] > 100 µM | [5] > 100 µM | [6] > 100 µM | [7] > 100 µM | [8] > 100 µM | [20] > 100 µM | [9] > 100 µM | [10] > 100 µM | [11] > 100 µM | [12] > 100 µM | [13] > 100 µM | [14] > 100 µM | [15] > 100 µM | [16] > 100 µM | [17] > 100 µM | [19] > 100 µM

N#Cc1ccc(C2ON=C(c3ccccc3)N2C23CC4CC(CC(C4)C2)C3)cc1 (stereo not drawn)
inactive: [1] > 10 µM | [2] > 10 µM | [3] > 10 µM | [4] > 10 µM | [5] > 10 µM | [6] > 10 µM | [7] > 10 µM | [8] > 10 µM | [20] 6.76 µM | [9] > 10 µM | [10] > 10 µM | [11] 6.19 µM | [12] > 10 µM | [13] > 10 µM | [14] > 10 µM | [15] > 10 µM | [16] > 10 µM | [17] > 10 µM | [18] > 10 µM

O=C(O)Cc1cccc2c(=O)c3ccccc3oc12
inactive: [1] > 100 µM | [2] > 100 µM | [3] > 100 µM | [4] > 100 µM | [5] > 100 µM | [6] > 100 µM | [7] > 100 µM | [8] > 100 µM | [20] > 100 µM | [9] > 100 µM | [10] > 100 µM | [11] > 100 µM | [12] > 100 µM | [13] > 100 µM | [14] > 100 µM | [15] > 100 µM | [17] > 100 µM | [18] 24.3 µM | [19] > 100 µM

CC(C)CCC[C@@H](C)C1CCC2[C@@H]3CCC4CC(CCC=C(c5cc(Cl)c(OC(=O)c6ccccc6)c(C(=O)O)c5)c5cc(Cl)c(OC(=O)c6ccccc6)c(C(=O)O)c5)CC[C@]4(C)C3CC[C@@]21C (stereo partly drawn)
inactive: [1] > 100 µM | [2] > 100 µM | [3] > 100 µM | [4] 34.8 µM | [5] > 100 µM | [6] 15.8 µM | [7] > 100 µM | [8] 64.7 µM | [20] 85.7 µM | [9] 74.8 µM | [10] > 100 µM | [11] > 100 µM | [13] > 100 µM | [15] > 100 µM | [16] > 100 µM | [17] > 100 µM | [18] > 100 µM | [19] > 100 µM
